Laboratory results: ChEMBL document CHEMBL5104093, “A comprehensive review on β-lapachone: Mechanisms, structural modifications, and therapeutic potentials” (Eur J Med Chem, 2021)
In brackets after ≈: the same amount, converted by molar mass.

Test system: Mycobacterium tuberculosis
Experiment: Antimycobacterial activity against rifampicin resistant Mycobacterium tuberculosis ATCC 35822 assessed as bacterial growth inhibition incubated for 7 days by resazurin dye based microtiter assay
Type: functional
Conditions: ATCC 35822, 168 h, time 7 day

`CC1(C)CCc2c(c3ccccc3c3nc(-c4ccc([N+](=O)[O-])cc4)[nH]c23)O1` was tested, and the MIC was 1.56 µg/mL (≈ 4.18 µM).

Test system: Mycobacterium tuberculosis
Experiment: Antimycobacterial activity against rifampicin resistant Mycobacterium tuberculosis ATCC 35338 assessed as bacterial growth inhibition incubated for 7 days by resazurin dye based microtiter assay
Type: functional
Conditions: ATCC 35338, 168 h, time 7 day

Point of comparison: `CC1(C)CCc2c(c3ccccc3c3nc(-c4cccc(F)c4)[nH]c23)O1`, MIC 1.56 µg/mL (≈ 4.5 µM). Against it:
- C=CCC1Cc2c(c3ccccc3c3nc4ccccc4nc23)OC1(C)C (stereo unspecified) — 2-fold lower, 0.78 µg/mL (≈ 2.2 µM)
- CC1(C)CCc2c(c3ccccc3c3nc(-c4cccc(Br)c4)[nH]c23)O1 — the same, 1.56 µg/mL (≈ 3.83 µM)
- CC1(C)CCc2c(c3ccccc3c3nc(-c4ccc([N+](=O)[O-])cc4)[nH]c23)O1 — higher, > 100 µg/mL
- COc1ccccc1-c1nc2c([nH]1)c1c(c3ccccc32)OC(C)(C)CC1 — the same, 1.56 µg/mL (≈ 4.35 µM)
- Cc1ccccc1-c1nc2c([nH]1)c1c(c3ccccc32)OC(C)(C)CC1 — the same, 1.56 µg/mL (≈ 4.56 µM)
- CC1(C)CCc2c(c3ccccc3c3nc(-c4cccc(C(F)(F)F)c4)[nH]c23)O1 — the same, 1.56 µg/mL (≈ 3.94 µM)
- Cc1ccc(-c2nc3c([nH]2)c2c(c4ccccc43)OC(C)(C)CC2)cc1 — 4-fold higher, 6.25 µg/mL (≈ 18.3 µM)
- CC1CCC2C(C1)c1c(c3ccccc3c3nc4ccccc4nc13)OC2(C)C (stereo unspecified) — not separable, < 6.25 µg/mL
- CC1(C)Oc2c(c3nc4ccccc4nc3c3ccccc23)C=C1Br — not separable, < 6.25 µg/mL
